# According to publication PMC11868579 (Nature Communications, 2024):
# “And” between values parts separate entries of the source, which are not always exact repeats. Equal entries are not always repeated.
# Columns and labels:
# [1] = target: T1, eIF4E minor variant D127N (N127) (Homo sapiens, UniProt P06730, D127N); assay: Isothermal titration calorimetry, eIF4E minor variant; format: binding
# T1 construct: made in house; host or cells: E. coli BL21-CodonPlus (DE3)-RIPL
# Experimental: ITC experiments were performed on either a MicroCal VP-ITC or a MicroCal Auto-ITC200 at 25 °C in a buffer comprising 50 mM HEPES, 100 mM NaCl, 1 mM TCEP and 5% DMSO at pH 7.5. Typical titrations on the MicroCal VP-ITC were performed using 17 × 16.4 µL injections with a 250 s spacing between each injection and with a stirring speed of 307 rpm. Typical titrations on the MicroCal Auto-ITC200 were performed using 12 × 3 µL injections with a 150 s spacing between each injection and with a stirring speed of 750 rpm. ITC data analyses were performed with Origin 7.0 software using the “One Set of Sites” model.
# [2] = Human microsomal clearance assay; format: in vitro ADME
# [3] = system: parent H1299 cells; assay: MCL1 and growth in parental H1299 cells; format: cell-based, human
# Experimental: Real time monitoring of cell growth was performed with the IncuCyte ZOOM live cell imaging system (Essen BioSciences, USA). Cells were seeded in 96 well plates (Corning, cat#353072) and treated on the next day. The resulting phase-contrast images were analysed using IncuCyte ZOOM 2018A software and results were expressed as percentage confluency of cells.
# After seeding overnight in 6 well plates (Corning, cat#353046), cells were treated with compounds for the indicated times and concentration, harvested and the cell pellet lysed on ice in cell lysis buffer (Cell Signaling, cat#9803), supplemented with 1x Halt^TM protease inhibitor cocktail (Fisher Scientific, cat#78429) and cOmplete^TM protease inhibitor cocktail (Sigma-Aldrich, cat#11836153001) for 1 hr. Protein was quantified using BCA protein kit (Fisher Scientific, cat#23225). Western blot was performed using NuPAGE^TM 4–12% Bis-Tris gels (Fisher Scientific, cat#NP0336BOX) and transferred using the Invitrogen iBLOT^TM gel transfer device system (Fisher Scientific, Cat#IB21001). […] All primary antibodies were diluted (1:1000) in 5% BSA (Sigma-Aldrich, cat#A7906) in 1x TBS and 0.1% Tween 20 (Sigma-Aldrich, cat#P1379), except for vinculin (1:2000) that was diluted in casein blocker (Sigma-Aldrich, cat#1610782). […] Quantitative densitometry analysis of protein bands was performed using Image J v1.53 software.
# T1 sequence (P06730 36-217 D127N): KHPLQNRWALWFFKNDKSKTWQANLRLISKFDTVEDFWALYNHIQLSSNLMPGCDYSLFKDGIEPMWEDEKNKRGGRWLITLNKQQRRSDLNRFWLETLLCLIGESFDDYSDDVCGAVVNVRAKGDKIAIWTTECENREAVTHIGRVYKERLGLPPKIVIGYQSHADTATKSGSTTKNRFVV
SMILES,"enthalpic contribution DH ([1]; ITC, eIF4E D127N)","entropic penalty -TDS ([1]; ITC, eIF4E D127N)",LE (ligand efficiency) ([1]; minor variant D127N),"Kd ([1]; read-out: eIF4E Kd, ITC, minor variant D127N)","Human microsomal intrinsic clearance ([2]; 1 µM, 0.25 mg/mL microsomes)",clearance in human liver microsomes ([2]; human),effect on MCL1 or proliferation in parent cells [3]
CC[C@H](O[C@H](C)CO)c1ccc(-c2ccccc2F)cc1NCCO [Compound 4],-12.0 kcal/mol and -12.0 ± 0.5 kcal/mol,1.4 ± 0.5 kcal/mol,0.42 (kcal/mol)/heavy atom,17 nM,210 µL/min/mg protein,moderate clearance,–
CC[C@H](C(=O)N1CCCC[C@H]1C(=O)O[C@H](CCc1ccc(OC)c(OC)c1)c1ccccc1OCC(=O)NCCCCCCC(=O)N[C@H](C(=O)N1C[C@H](O)C[C@H]1C(=O)N[C@@H](C)c1ccc(-c2scnc2C)cc1)C(C)(C)C)c1cc(OC)c(OC)c(OC)c1 [dTAG^V-1],–,–,–,–,–,–,no effect on MCL1 or proliferation
